From PubChem BioAssay AID330 (DTP/NCI, 2004)
Where “and” joins values, the source holds several entries; their conditions need not be identical. Equal values may be shown once. Toxic doses and inconclusive results are not listed. How the source made its calls: active means survival T/C of 150% or more; inactive means T/C below 125% in these data.

Tested on: P388 leukemia ip, CD2F1 mice, survival T/C
Assay: NCI In Vivo Anticancer Drug Screen. Data for tumor model P388 Leukemia (intraperitoneal) in CD2F1 (CDF1) mice
Settings: endpoint: median survival time, higher = longer survival
Procedure, shortened: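 Mice carrying the transplanted tumor received test compound or vehicle. Survival was recorded in each group, and the value is the treated-group measurement divided by that of the vehicle-treated control group.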

[1] = dose: 1.56 mg/kg/injection, schedule: Q01DX009 (ip), vehicle: saline with Tween-80
[2] = dose: 3.12 mg/kg/injection, schedule: Q01DX009 (ip), vehicle: saline with Tween-80
[3] = dose: 6.25 mg/kg/injection, schedule: Q01DX009 (ip), vehicle: saline with Tween-80
[4] = dose: 6.25 mg/kg/injection, schedule: Q01DX009 (ip), vehicle: Klucel (hydroxypropylcellulose) (HPC)
[5] = dose: 12.5 mg/kg/injection, schedule: Q01DX009 (ip), vehicle: Klucel (hydroxypropylcellulose) (HPC)
[6] = dose: 25.0 mg/kg/injection, schedule: Q01DX009 (ip), vehicle: Klucel (hydroxypropylcellulose) (HPC)
[7] = dose: 50.0 mg/kg/injection, schedule: Q01DX009 (ip), vehicle: Klucel (hydroxypropylcellulose) (HPC)
[8] = dose: 100.0 mg/kg/injection, schedule: Q01DX009 (ip), vehicle: Klucel (hydroxypropylcellulose) (HPC)
[9] = dose: 50.0 mg/kg/injection, schedule: Q01DX005 (ip), vehicle: saline with Tween-80
[10] = dose: 60.0 mg/kg/injection, schedule: Q01DX005 (ip), vehicle: saline with Tween-80
[11] = dose: 200.0 mg/kg/injection, schedule: Q01DX009 (ip), vehicle: Klucel (hydroxypropylcellulose) (HPC)
[12] = dose: 12.5 mg/kg/injection, schedule: Q01DX009 (ip), vehicle: water
[13] = dose: 25.0 mg/kg/injection, schedule: Q01DX009 (ip), vehicle: water
[14] = dose: 50.0 mg/kg/injection, schedule: Q01DX009 (ip), vehicle: water
[15] = dose: 60.0 mg/kg/injection, schedule: Q01DX005 (ip), vehicle: Klucel (hydroxypropylcellulose) (HPC)
[16] = dose: 120.0 mg/kg/injection, schedule: Q01DX005 (ip), vehicle: Klucel (hydroxypropylcellulose) (HPC)
[17] = dose: 240.0 mg/kg/injection, schedule: Q01DX005 (ip), vehicle: Klucel (hydroxypropylcellulose) (HPC)
[18] = dose: 12.5 mg/kg/injection, schedule: Q01DX009 (ip), vehicle: saline with Tween-80
[19] = dose: 25.0 mg/kg/injection, schedule: Q01DX009 (ip), vehicle: saline with Tween-80
[20] = dose: 50.0 mg/kg/injection, schedule: Q01DX009 (ip), vehicle: saline with Tween-80

Measured: T/C

C=COCC(C)C (tested in a mixture with another compound)
inactive: [1] 108 % of control | [2] 101 % of control | [3] 96 % of control

CC(=O)OCC1OC(n2cc(F)c(=O)[nH]c2=O)C(OC(C)=O)C1OC(C)=O (configuration not stated)
inactive: dose: 1.56 mg/kg/injection, schedule: Q01DX009 (ip), vehicle: Klucel (hydroxypropylcellulose) (HPC) 110 % of control | [5] 108 % of control | [6] 89 % of control | [7] 89 % of control | [8] 88 % of control
active: [4] 151 % of control

CCCCN(CCCC)CCNc1ccc(C)c2sc3ccc(Cl)cc3c(=O)c12
inactive: dose: 12.5 mg/kg/injection, schedule: Q01DX005 (ip), vehicle: saline with Tween-80 88 % of control | dose: 25.0 mg/kg/injection, schedule: Q01DX005 (ip), vehicle: saline with Tween-80 88 % of control | [9] 89 % of control

CC(O[Si](C)(C)C(C)(C)C)C(=O)Sc1ccccn1 (configuration not stated)
inactive: [10] 102 % of control | dose: 120.0 mg/kg/injection, schedule: Q01DX005 (ip), vehicle: saline with Tween-80 103 % of control

NC(=O)C(CCc1nc2ccccc2[nH]1)NS(=O)(=O)c1ccccc1 (configuration not stated)
inactive: [7] 102 % of control | [8] 101 % of control | [11] 102 % of control

O=C(CC(=O)C(F)(F)F)c1cccs1.O=C(CC(=O)C(F)(F)F)c1cccs1.O=C(CC(=O)C(F)(F)F)c1cccs1.[Tb]
inactive: dose: 50.0 mg/kg/injection, schedule: Q01DX009 (ip), vehicle: saline 86 % of control | dose: 100.0 mg/kg/injection, schedule: Q01DX009 (ip), vehicle: saline 86 % of control | dose: 200.0 mg/kg/injection, schedule: Q01DX009 (ip), vehicle: saline 89 % of control

NC1=C(N2CC2)C(=O)C(N)=C(N2CC2)C1=O
active: dose: 0.05 mg/kg/injection, schedule: Q01DX009 (ip), vehicle: saline 177 % of control | dose: 0.1 mg/kg/injection, schedule: Q01DX009 (ip), vehicle: saline 187 % of control and 223 % of control | dose: 0.2 mg/kg/injection, schedule: Q01DX009 (ip), vehicle: saline 256 % of control | dose: 0.3 mg/kg/injection, schedule: Q01DX009 (ip), vehicle: saline 225 % of control

CSC1=NC(=S)C(C)(C)NN1
inactive: dose: 100.0 mg/kg/injection, schedule: Q04DX002 (ip), vehicle: Klucel (hydroxypropylcellulose) (HPC) 104 % of control

COc1ccc2c3csc4ccccc4c-3nc2c1
inactive: dose: 16.0 mg/kg/injection, schedule: Q01DX009 (ip), vehicle: saline 107 % of control | dose: 25.0 mg/kg/injection, schedule: Q01DX009 (ip), vehicle: saline 115 % of control | dose: 35.0 mg/kg/injection, schedule: Q01DX009 (ip), vehicle: saline 95 % of control

CC1=[N+]([O-])[N+]([O-])=C(C)C1=O
inactive: [4] 91 % of control | [5] 100 % of control

COc1cccc(CN2CCNCC2)c1
inactive: dose: 6.25 mg/kg/injection, schedule: Q01DX009 (ip), vehicle: water 90 % of control | [12] 94 % of control | [13] 93 % of control | [14] 94 % of control

CSC1=Nc2cccnc2Nc2cscc21
inactive: dose: 15.0 mg/kg/injection, schedule: Q01DX005 (ip), vehicle: saline with Tween-80 102 % of control | dose: 30.0 mg/kg/injection, schedule: Q01DX005 (ip), vehicle: saline with Tween-80 98 % of control | [10] 112 % of control and 94 % of control

O=c1[nH]c(Br)nc2nc[nH]c12
inactive: [9] 93 % of control | dose: 100.0 mg/kg/injection, schedule: Q01DX005 (ip), vehicle: saline with Tween-80 94 % of control | dose: 200.0 mg/kg/injection, schedule: Q01DX005 (ip), vehicle: saline with Tween-80 92 % of control

CCOC(=O)c1ccc(NC(=O)N2CCCCC2C)cc1 (configuration not stated)
inactive: [15] 104 % of control | [16] 89 % of control | [17] 97 % of control

CCN(CC)CCN1C(=O)c2cccc3cc(N)cc(c23)C1=O
active: [20] 160 % of control
inactive: [1] 101 % of control | dose: 1.6 mg/kg/injection, schedule: Q01DX009 (ip), vehicle: saline with Tween-80 100 % of control | [2] 98 % of control | dose: 3.2 mg/kg/injection, schedule: Q01DX009 (ip), vehicle: saline with Tween-80 108 % of control | [3] 98 % of control | dose: 6.5 mg/kg/injection, schedule: Q01DX009 (ip), vehicle: saline with Tween-80 107 % of control and 123 % of control | [18] 107 % of control | dose: 13.1 mg/kg/injection, schedule: Q01DX009 (ip), vehicle: saline with Tween-80 121 % of control and 123 % of control | [19] 114 % of control | dose: 26.0 mg/kg/injection, schedule: Q01DX009 (ip), vehicle: saline with Tween-80 124 % of control

CC1CC(=O)c2cc3oc(=O)n(C)c3cc21 (configuration not stated)
inactive: dose: 50.0 mg/kg/injection, schedule: Q01DX005 (ip), vehicle: Klucel (hydroxypropylcellulose) (HPC) 105 % of control | dose: 100.0 mg/kg/injection, schedule: Q01DX005 (ip), vehicle: Klucel (hydroxypropylcellulose) (HPC) 94 % of control

O=[N+]([O-])c1ccc(N=Nc2ccc(N(CCCl)CCCl)cc2)cc1
inactive: dose: 50.0 mg/kg/injection, schedule: Q04DX003 (ip), vehicle: Klucel (hydroxypropylcellulose) (HPC) 100 % of control | dose: 100.0 mg/kg/injection, schedule: Q04DX003 (ip), vehicle: Klucel (hydroxypropylcellulose) (HPC) 100 % of control | dose: 200.0 mg/kg/injection, schedule: Q04DX003 (ip), vehicle: Klucel (hydroxypropylcellulose) (HPC) 106 % of control

C=C1C(=O)O[C@@H]2C[C@@H](C)[C@@H]3CC(=O)OC[C@@]3(C)C[C@H]12
inactive: dose: 50.0 mg/kg/injection, schedule: Q01DX001 (ip), vehicle: saline with Tween-80 100 % of control | dose: 100.0 mg/kg/injection, schedule: Q01DX001 (ip), vehicle: saline with Tween-80 117 % of control | dose: 200.0 mg/kg/injection, schedule: Q01DX001 (ip), vehicle: saline with Tween-80 118 % of control

Nc1noc(N)n1
inactive: dose: 50.0 mg/kg/injection, schedule: Q01DX005 (ip), vehicle: saline 107 % of control | dose: 100.0 mg/kg/injection, schedule: Q01DX005 (ip), vehicle: saline 110 % of control | dose: 200.0 mg/kg/injection, schedule: Q01DX005 (ip), vehicle: saline 124 % of control

O=C1CCNN1c1ccccc1
inactive: [12] 100 % of control | [13] 103 % of control | [14] 100 % of control | dose: 100.0 mg/kg/injection, schedule: Q01DX009 (ip), vehicle: water 103 % of control | dose: 200.0 mg/kg/injection, schedule: Q01DX009 (ip), vehicle: water 106 % of control

CCn1c(=O)c2[nH]c(Br)nc2n(CCOC)c1=O
inactive: [7] 90 % of control | [8] 93 % of control | [11] 104 % of control

COC1/C=C\OC2(C)Oc3c(C)c(O)c4c(c3C2=O)C2=NC(C)(C)N(c3ccccc3)C2=C(NC(=O)/C(C)=C\C=C\C(C)C(O)C(C)C(O)C(C)C(OC(C)=O)C1C)C4=O (configuration not stated)
inactive: [6] 100 % of control | [7] 103 % of control | [8] 98 % of control | [11] 107 % of control

COC(=O)CCCC1=NC2=CC=CC3=NC(C)=NC(=N1)N23
inactive: [18] 123 % of control | [19] 114 % of control | [20] 98 % of control | dose: 100.0 mg/kg/injection, schedule: Q01DX009 (ip), vehicle: saline with Tween-80 104 % of control

CCCCCCCC(=O)Nc1ccccc1CC
inactive: dose: 100.0 mg/kg/injection, schedule: Q04DX003 (ip), vehicle: other 100 % of control | dose: 200.0 mg/kg/injection, schedule: Q04DX003 (ip), vehicle: other 100 % of control | dose: 400.0 mg/kg/injection, schedule: Q04DX003 (ip), vehicle: other 95 % of control

Nc1nc(N)c2cc(S(=O)(=O)c3nc(-c4ccccc4)cs3)ccc2n1
inactive: [15] 98 % of control | [16] 98 % of control | [17] 105 % of control
